This passage reports activity and IC50 results from patent US20230322789A1, “PYRAZOLOPYRIDAZINONE COMPOUND, AND PHARMACEUTICAL COMPOSITION AND USE THEREOF” (BroadenBio Co., Ltd., priority 2020, published 2023).

For one test, the system named is Human Jurkat-E6-1 cells. Briefly: Measurement of IL-2 secretion of Jurkat cells by ELISA. The class given is cell-based. Particulars: Homo sapiens, Jurkat E6.1; test compound 3.0 μM; anti-CD3/anti-CD28 stimulation 24 hours; read-out: Percentage of the amount of IL-2 secreted from compound treated/DMSO-treated cells. The procedure: 2. Measurement of IL-2 Secretion of Jurkat Cells by ELISA
Human Jurkat-E6-1 cells were incubated with various concentrations of test compounds for 30 minutes in a humidified incubator at 37° C. and […]. Cells were transferred to cell culture plates pre-coated with anti-human CD3 antibody, then soluble anti-human CD28 antibody was added, and cells were stimulated for 24 hours at 37° C. and 5% CO2 in a humidified incubator. The cell culture medium was collected by centrifugation, and was then transferred to a 96-well transparent microtiter plate (Thermo) pre-coated with anti-human IL-2 antibody, incubated at room temperature for 2 hours, and gently shaken, washed with washing buffer for 4 times, and then followed the ELISA MAX Deluxe Set Human IL-2 (BioLegend) kit procedure, used a microplate reader (Molecular Device, i3X) to read the GD value. The best standard curve was selected by the microplate reader application software, and the corresponding concentration was calculated according to the GD value of the standard. Results are expressed as a percentage of the amount of IL-2 secreted from compound-treated/DMSO-treated cells.

The next test deals with HPK1 (Homo sapiens (Human), UniProt Q92918). Nature of the test: HPK1 kinase activity inhibition test (ADP-Glo, luminescence). It counts as biochemical. To be noted: HPK1 5 nM, ATP 2 μM, read-out: IC50, inhibitory effects of compounds on HPK1 kinase activity. In short, it runs like this:
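HPK1 autophosphorylation was run without added substrate. Kinase and compound were preincubated 10 min at 25° C., then ATP was added for 60 min at 25° C. ADP formed was detected by ADP-Glo luminescence, and IC50 was taken from a four-parameter nonlinear fit.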

Counter-ions that a name gives are not always drawn.

Sequence of HPK1 (Q92918 whole entry): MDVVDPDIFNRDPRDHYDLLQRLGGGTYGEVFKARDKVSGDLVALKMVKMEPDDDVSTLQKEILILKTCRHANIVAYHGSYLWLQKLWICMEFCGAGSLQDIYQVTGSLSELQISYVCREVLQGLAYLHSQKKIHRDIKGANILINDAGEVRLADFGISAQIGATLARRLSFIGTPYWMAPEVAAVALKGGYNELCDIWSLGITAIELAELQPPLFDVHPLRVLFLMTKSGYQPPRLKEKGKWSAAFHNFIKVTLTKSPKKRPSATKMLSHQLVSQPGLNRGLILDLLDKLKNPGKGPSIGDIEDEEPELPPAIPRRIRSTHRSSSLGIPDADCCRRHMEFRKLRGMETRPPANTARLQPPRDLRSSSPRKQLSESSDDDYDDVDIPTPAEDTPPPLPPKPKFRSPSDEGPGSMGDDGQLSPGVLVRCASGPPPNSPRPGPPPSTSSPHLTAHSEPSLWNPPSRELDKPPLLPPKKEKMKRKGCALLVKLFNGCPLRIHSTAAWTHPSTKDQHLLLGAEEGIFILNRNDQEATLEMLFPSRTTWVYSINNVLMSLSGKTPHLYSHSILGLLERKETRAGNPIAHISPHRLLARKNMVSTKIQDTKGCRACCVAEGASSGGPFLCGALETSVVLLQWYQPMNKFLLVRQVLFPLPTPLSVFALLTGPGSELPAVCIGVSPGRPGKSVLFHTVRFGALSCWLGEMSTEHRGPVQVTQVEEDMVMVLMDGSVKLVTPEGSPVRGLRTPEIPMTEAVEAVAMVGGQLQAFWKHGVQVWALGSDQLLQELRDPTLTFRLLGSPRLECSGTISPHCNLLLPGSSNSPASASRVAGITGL

As for `Cc1cccc(F)c1-n1nc2c(-c3ccc(OCC4CNCCN4)cc3)n[nH]c2cc1=O` (centres unmarked) [Compound 93, 5-(2-fluoro-6-methylphenyl)-3-(4-(piperazin-2-ylmethoxy)phenyl)-1H-pyrazolo[4,3-c]pyridazin-6(5H)-one], the activity at 3 µM with Human Jurkat-E6-1 cells was found to be 210%. The 50% inhibitory concentration (IC50) on HPK1 is ≤ 50 nM.
Regarding `Cc1cccc(F)c1-n1nc2c(-c3ccc(N4CCN(C)CC4)c(F)c3)n[nH]c2cc1=O` [Compound 94], the activity at 3 µM in the test with Human Jurkat-E6-1 cells stood at 414%. Further, the concentration for half-maximal inhibition (IC50) at HPK1 was ≤ 50 nM.
Take `CCc1cccc(F)c1-n1nc2c(-c3ccc(N4CCN(C)CC4)nc3)n[nH]c2cc1=O` [Compound 98, 5-(2-ethyl-6-fluorophenyl)-3-(6-(4-methylpiperazin-1-yl)pyrid-3-yl)-1H-pyrazolo[4,3-c]pyridazin-6(5H)-one]: the activity at 3 µM with Human Jurkat-E6-1 cells was 850%. Moreover, the IC50 on HPK1 was ≤ 50 nM.
As to `Cc1cc(C#N)cc(F)c1-n1nc2c(-c3ccc(N4CCN(C)CC4)nc3)n[nH]c2cc1=O` [Compound 99, 3-fluoro-5-methyl-4-(3-(6-(4-methylpiperazin-1-yl)pyrid-3-yl)-6-oxo-1H-pyrazolo[4,3-c]pyridazin-5(6H)-yl)benzonitrile], in the test on Human Jurkat-E6-1 cells, the activity at 3 µM turned out to be 237%. The IC50 at HPK1 lay within 50 to 500 nM.
Take `CN1CCN(c2ccc(-c3n[nH]c4cc(=O)n(-c5c(O)cccc5F)nc34)cn2)CC1` [Compound 100, 5-(2-fluoro-6-hydroxylphenyl)-3-(6-(4-methylpiperazin-1-yl)pyrid-3-yl)-1H-pyrazolo[4,3-c]pyridazin-6(5H)-one hydrobromide]: the activity at 3 µM in the test with Human Jurkat-E6-1 cells worked out at 284%. Also, the IC50 at HPK1 lay in the range of 50 to 500 nM.
Regarding `Cc1cccc(F)c1-n1nc2c(-c3ccc(N4CCN(C5COC5)CC4)nc3)n[nH]c2cc1=O` [Compound 103], in the test on Human Jurkat-E6-1 cells, the activity at 3 µM amounted to 716%. Besides, the IC50 on HPK1 is ≤ 50 nM.
On to `CCS(=O)(=O)N1CCN(c2ccc(-c3n[nH]c4cc(=O)n(-c5c(C)cccc5F)nc34)cn2)CC1` [Compound 105], for which the activity at 3 µM with Human Jurkat-E6-1 cells was 623%. Also, the IC50 on HPK1 was ≤ 50 nM.
As for `Cc1cccc(F)c1-n1nc2c(-c3ccc(N4CCN(C5CCOC5)CC4)nc3)n[nH]c2cc1=O` (centres unmarked) [Compound 106, 5-(2-fluoro-6-methylphenyl)-3-(6-(4-(tetrahydrofuran-3-yl)piperazin-1-yl)pyrid-3-yl)-1H-pyrazolo[4,3-c]pyridazin-6(5H)-one], the activity at 3 µM with Human Jurkat-E6-1 cells amounted to 833%. Besides, the half-inhibitory concentration (IC50) at HPK1 is ≤ 50 nM.
Take `CN1CCN(c2ccc(-c3n[nH]c4cc(=O)n(-c5c(F)cccc5Cl)nc34)cn2)CC1` [Compound 107]: the activity at 3 µM in the test on Human Jurkat-E6-1 cells is 599%. Further, the IC50 at HPK1 is ≤ 50 nM.
The corresponding values for `Cc1cc(Cl)cc(F)c1-n1nc2c(-c3ccc(N4CCN(C)CC4)nc3)n[nH]c2cc1=O` [Compound 108] are 312% and 50 to 500 nM.
Regarding `Cc1cccc(F)c1-n1nc2c(-c3ccc(N4CC5CCC(C4)N5C)nc3)n[nH]c2cc1=O` [Compound 109, 5-(2-fluoro-6-methylphenyl)-3-(6-(8-methyl-3,8-diazabicyclo[3.2.1]octan-3-yl)pyrid-3-yl)-1H-pyrazolo[4,3-c]pyridazin-6(5H)-one], in the test on Human Jurkat-E6-1 cells, the activity at 3 µM was 491%. Besides, the IC50 at HPK1 was ≤ 50 nM.
The corresponding values for `COc1cccc(F)c1-n1nc2c(-c3cnc(N4CCOCC4)nc3)n[nH]c2cc1=O` [Compound 111, 5-(2-fluoro-6-methoxyphenyl)-3-(2-morpholinyl-pyrimidin-5-yl)-1H-pyrazolo[4,3-c]pyridazin-6(5H)-one] are 522% and ≤ 50 nM.
In the case of `CCc1cccc(F)c1-n1nc2c(-c3ccc(N4CCN(CCO)CC4)cc3)n[nH]c2cc1=O` [Compound 112, 5-(2-ethyl-6-fluorophenyl)-3-(4-(4-(2-hydroxyethyl)piperazin-1-yl)phenyl)-1H-pyrazolo[4,3-c]pyridazin-6(5H)-one], in the test on Human Jurkat-E6-1 cells, the activity at 3 µM was 703%. For the same compound, the concentration for half-maximal inhibition (IC50) at HPK1 is ≤ 50 nM.
As to `COc1cccc(F)c1-n1nc2c(-c3ccc(N4CCN(CCO)CC4)cc3)n[nH]c2cc1=O` [Compound 113, 5-(2-fluoro-6-methoxyphenyl)-3-(4-(4-(2-hydroxyethyl)piperazin-1-yl)phenyl)-1H-pyrazolo[4,3-c]pyridazin-6(5H)-one], the activity at 3 µM in the test on Human Jurkat-E6-1 cells worked out at 368%. Also, the IC50 on HPK1 was ≤ 50 nM.
The like results for `COc1cc(C#N)cc(F)c1-n1nc2c(-c3ccc(N4CCN(CCO)CC4)cc3)n[nH]c2cc1=O` [Compound 114, 3-fluoro-4-(3-(4-(4-(2-hydroxyethyl)piperazin-1-yl)phenyl)-6-oxo-1H-pyrazolo[4,3-c]pyridazin-5(6H)-yl)-5-methoxybenzonitrile] were, in that order, 309% and ≤ 50 nM.
As to `COc1cccc(F)c1-n1nc2c(-c3ccc(N4CCN(CC(C)(C)O)CC4)cc3)n[nH]c2cc1=O` [Compound 115, 5-(2-fluoro-6-methoxyphenyl)-3-(4-(4-(2-hydroxyl-2-methylpropyl)piperazin-1-yl)phenyl)-1H-pyrazolo[4,3-c]pyridazin-6(5H)-one], in the test with Human Jurkat-E6-1 cells, the activity at 3 µM was 542%. The IC50 on HPK1 was ≤ 50 nM.
As to `Cc1cccc(F)c1-n1nc2c(-c3ccc(N4CC5CCC(C4)N5CCO)cc3)n[nH]c2cc1=O` [Compound 117, 5-(2-fluoro-6-methylphenyl)-3-(4-(8-(2-hydroxyethyl)-3,8-diazabicyclo[3.2.1]octan-3-yl)phenyl)-1H-pyrazolo[4,3-c]pyridazin-6(5H)-one], the activity at 3 µM in the test on Human Jurkat-E6-1 cells was 566%. Further, the 50% inhibitory concentration (IC50) on HPK1 is ≤ 50 nM.
Consider `Cc1cccc(F)c1-n1nc2c(-c3ccc(N4CCN(CCO)CC4)nc3)n[nH]c2cc1=O` [Compound 118, 5-(2-fluoro-6-methylphenyl)-3-(6-(4-(2-hydroxyethyl)piperazin-1-yl)pyrid-3-yl)-1H-pyrazolo[4,3-c]pyridazin-6(5H)-one], for which, in the test on Human Jurkat-E6-1 cells, the activity at 3 µM turned out to be 550%. Further, the IC50 at HPK1 is ≤ 50 nM.
The corresponding values for `COCCN1CCN(c2ccc(-c3n[nH]c4cc(=O)n(-c5c(C)cccc5F)nc34)cn2)CC1` [Compound 119, 5-(2-fluoro-6-methylphenyl)-3-(6-(4-(2-methoxyethyl)piperazin-1-yl)pyrid-3-yl)-1H-pyrazolo[4,3-c]pyridazin-6(5H)-one] are 531% and ≤ 50 nM.
The like results for `Cc1cccc(F)c1-n1nc2c(-c3ccc(N4CCN(C)C(CO)C4)cc3)n[nH]c2cc1=O` (centres unmarked) [Compound 120, 5-(2-fluoro-6-methylphenyl)-3-(4-(3-(hydroxymethyl)-4-methylpiperazin-1-yl)phenyl)-1H-pyrazolo[4,3-c]pyridazin-6(5H)-one] were, in that order, 482% and ≤ 50 nM.
The corresponding values for `COc1cccc(F)c1-n1nc2c(-c3ccc(N4CCN(C)C(CO)C4)cc3)n[nH]c2cc1=O` (centres unmarked) [Compound 121, 5-(2-fluoro-6-methoxyphenyl)-3-(4-(3-(hydroxymethyl)-4-methylpiperazin-1-yl)phenyl)-1H-pyrazolo[4,3-c]pyridazin-6(5H)-one] are 459% and ≤ 50 nM.
For the compound `COc1cc(C#N)cc(F)c1-n1nc2c(-c3ccc(N4CCN5C(=O)OCC5C4)cc3)n[nH]c2cc1=O` (centres unmarked) [Compound 124, 3-fluoro-5-methoxy-4-(6-oxo-3-(4-(3-oxotetrahydro-1H-oxazolo[3,4-a]pyrazin-7(3H)-yl)phenyl)-1H-pyrazolo[4,3-c]pyridazin-5(6H)-yl)benzonitrile], the activity at 3 µM in the test with Human Jurkat-E6-1 cells was determined as 570%. Besides, the IC50 at HPK1 was ≤ 50 nM.
